Test results published in patent US10336707B2, “Heterocyclic derivatives modulating activity of certain protein kinases” (EUDENDRON S.R.L., priority 2014, dated 2019).
Read-outs that look alike come from different tables or passages of the source.

Experiments:
[1] = test system: Karpas 299 lymphoma cell line positive for the oncogenic fusion protein NPM-ALK; experiment: Tritiated thymidine uptake cell proliferation assay, Karpas 299; assay type: cell-based; details: Homo sapiens
Method: (§1) Method: Tritiated Thymidine Uptake Cell Proliferation Assay
(§2) The following procedure was used with parent untransformed BaF3 cells, BaF3 cells transformed with the oncogenic fusion protein NPM/ALK, NPM/ALK positive SUDHL-1 cells, NPM/ALK positive SUPM2, ALK-negative HL60 cells, NPM/ALK positive KARPAS-299 cells. The parent untransformed BaF3 cells or Alk-negative HL60 cells are used as controls. Cells were seeded in U-bottomed 96-well plates at 10000 cells/well in a volume of 100 μl in supplemented medium. In the case of the parent untransformed BaF3 cells, the medium was supplemented with IL-3. Serial dilutions of inhibitors were added to the appropriate wells and volumes adjusted to 200 μl. Controls were treated with the equivalent volume of vehicle, DMSO, alone. Plates were incubated at 37° C. for 72 h. 3[H]-thymidine (1 μCi/well) was added for the last 16 h of incubation. Cells were harvested on to paper filters and 3[H]-thymidine incorporation was measured using a scintillation counter (1430 MicroBeta, Wallac, Turku, Finland). The 50% inhibitory concentration (IC50) was defined as the concentration of inhibitor, expressed in nanomolar units, that gave a 50% decrease in 3[H]-thymidine uptake compared with controls.
In Table 1 are listed results for selected examples of compounds of the invention, reported as percentage of inhibition of cell proliferation at 200 nM, obtained from cellular assays in Karpas 299 lymphoma cell line positive for the oncogenic fusion protein NPM-ALK.

[2] = biological target: T1, BaF3 cell line transfected with the oncogenic fusion protein NPM-ALK and expressing the mutation L1196M (Homo sapiens, UniProt Q9UM73, L1196M, cells depend on it); experiment: Tritiated thymidine uptake cell proliferation assay, BaF3 NPM-ALK L1196M; assay type: cell-based, murine; details: for % Inhibition BaF3 NPM-ALK L1196M cells: percentage of inhibition of cell proliferation at 200 nM; for GI50: averaged IC50 values of cell proliferation inhibition, class letters, read-out: IC50 BaF3 NPM-ALK L1196M cells
T1 construct: fused on or other part: P06748 (Nucleophosmin)
T1 sequence (Q9UM73 whole entry L1196M, the tested form may be a part): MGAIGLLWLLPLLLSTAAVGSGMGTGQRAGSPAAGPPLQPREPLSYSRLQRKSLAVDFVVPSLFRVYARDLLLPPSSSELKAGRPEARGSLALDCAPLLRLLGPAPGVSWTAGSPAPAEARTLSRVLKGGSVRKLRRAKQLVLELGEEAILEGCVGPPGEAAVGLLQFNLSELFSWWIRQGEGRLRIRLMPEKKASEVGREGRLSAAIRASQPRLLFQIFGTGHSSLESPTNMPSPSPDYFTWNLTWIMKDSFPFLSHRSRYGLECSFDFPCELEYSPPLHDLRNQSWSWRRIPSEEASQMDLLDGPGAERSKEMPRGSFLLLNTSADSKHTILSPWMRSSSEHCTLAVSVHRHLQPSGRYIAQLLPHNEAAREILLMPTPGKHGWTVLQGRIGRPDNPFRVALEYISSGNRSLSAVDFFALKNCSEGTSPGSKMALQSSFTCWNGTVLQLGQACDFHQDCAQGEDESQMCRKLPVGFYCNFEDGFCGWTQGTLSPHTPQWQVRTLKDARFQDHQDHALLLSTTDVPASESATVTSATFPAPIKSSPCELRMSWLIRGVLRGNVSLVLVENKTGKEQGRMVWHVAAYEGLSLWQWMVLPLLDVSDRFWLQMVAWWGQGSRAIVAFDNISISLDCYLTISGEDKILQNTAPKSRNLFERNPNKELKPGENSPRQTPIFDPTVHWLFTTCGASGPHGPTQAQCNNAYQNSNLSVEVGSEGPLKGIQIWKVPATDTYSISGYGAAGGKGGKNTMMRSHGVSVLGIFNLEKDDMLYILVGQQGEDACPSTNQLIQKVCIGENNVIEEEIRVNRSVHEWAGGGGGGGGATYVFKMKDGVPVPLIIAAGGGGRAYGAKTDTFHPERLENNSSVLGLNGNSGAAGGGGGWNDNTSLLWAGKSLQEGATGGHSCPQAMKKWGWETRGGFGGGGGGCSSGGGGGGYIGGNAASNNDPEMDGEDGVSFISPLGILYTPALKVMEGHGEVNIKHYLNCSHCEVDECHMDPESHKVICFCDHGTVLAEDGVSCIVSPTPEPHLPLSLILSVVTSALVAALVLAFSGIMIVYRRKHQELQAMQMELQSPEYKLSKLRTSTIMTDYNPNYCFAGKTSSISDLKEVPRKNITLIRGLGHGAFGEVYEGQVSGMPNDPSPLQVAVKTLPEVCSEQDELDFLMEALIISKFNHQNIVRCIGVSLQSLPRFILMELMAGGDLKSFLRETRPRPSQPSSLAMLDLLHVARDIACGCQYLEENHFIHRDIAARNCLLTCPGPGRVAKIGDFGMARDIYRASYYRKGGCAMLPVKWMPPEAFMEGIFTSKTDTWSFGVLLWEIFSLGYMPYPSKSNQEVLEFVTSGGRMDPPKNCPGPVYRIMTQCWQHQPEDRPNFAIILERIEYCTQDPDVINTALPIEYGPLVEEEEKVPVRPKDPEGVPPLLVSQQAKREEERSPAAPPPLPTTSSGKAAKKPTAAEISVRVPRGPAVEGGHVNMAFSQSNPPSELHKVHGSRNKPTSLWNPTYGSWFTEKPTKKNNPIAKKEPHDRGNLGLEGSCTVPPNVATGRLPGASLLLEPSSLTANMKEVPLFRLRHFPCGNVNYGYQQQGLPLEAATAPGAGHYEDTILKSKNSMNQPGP
Method: as §1, §2
In Table 2 are listed results for selected examples of compounds of the invention, reported as percentage of inhibition of cell proliferation at 200 nM, obtained from cellular assays in BaF3 cell line transfected with the oncogenic fusion protein NPM-ALK and expressing the mutation L1196M.
In Table 3 are listed averaged IC50 values of cell proliferation inhibition for selected examples of compounds of the present invention, obtained from cellular assays in BaF3 cell line transfected with the oncogenic fusion protein NPM-ALK and expressing the mutation L1196M. The letter “A” designates an IC50 value between 1 nM and 50 nM, the letter “B” designates an IC50 value between 50 nM and 100 nM, the letter “C” designates an IC50 value between 100 and 500 nM.

[3] = KARPAS-299, percentage of inhibition of cell proliferation at 200 nM, read-out: % Inhibition Karpas 299 cells
[4] = KARPAS-299, read-out: % Inhibition Karpas 299 cells

SMILES: CN1CCN(c2ccc(C(=O)Nc3n[nH]c4cc(-c5ccccc5)c(Cc5cc(F)cc(F)c5)cc34)c(NC3CCOCC3)c2)CC1 [Example 23, N-[5-[(3,5-difluorophenyl)methyl]-6-phenyl-1H-indazol-3-yl]-4-(4-methylpiperazin-1-yl)-2-(tetrahydropyran-4-ylamino)benzamide]
- inhibition at 0.2 µM [1, 3]: 71%
- % Inhibition BaF3 NPM-ALK L1196M cells [2]: 61%

SMILES: CN1CCN(c2ccc(C(=O)Nc3n[nH]c4cc(-c5ccc(O)c(F)c5)c(Cc5cc(F)cc(F)c5)cc34)c(NC3CCOCC3)c2)CC1 [Example 25, N-[5-[(3,5-difluorophenyl)methyl]-6-(3-fluoro-4-hydroxy-phenyl)-1H-indazol-3-yl]-4-(4-methylpiperazin-1-yl)-2-(tetrahydropyran-4-ylamino)benzamide]
- inhibition at 0.2 µM [1, 3]: 100%
- GI50 [2]: 1 to 50 nM
- % Inhibition BaF3 NPM-ALK L1196M cells [2]: 100%

SMILES: CN1CCN(c2ccc(C(=O)Nc3n[nH]c4cc(-c5ccc6[nH]ncc6c5)c(Cc5cc(F)cc(F)c5)cc34)c(NC3CCOCC3)c2)CC1 [Example 26, N-[5-[(3,5-difluorophenyl)methyl]-6-(1H-indazol-5-yl)-1H-indazol-3-yl]-4-(4-methylpiperazin-1-yl)-2-(tetrahydropyran-4-ylamino)benzamide]
- inhibition at 0.2 µM [1, 3]: 99%
- GI50 [2]: 1 to 50 nM
- % Inhibition BaF3 NPM-ALK L1196M cells [2]: 99%

SMILES: CN1CCN(c2ccc(C(=O)Nc3n[nH]c4cc(-c5cncnc5)c(Cc5cc(F)cc(F)c5)cc34)c(NC3CCOCC3)c2)CC1 [Example 27, N-[5-[(3,5-difluorophenyl)methyl]-6-(pyrimidin-5-yl)-1H-indazol-3-yl]-4-(4-methylpiperazin-1-yl)-2-(tetrahydropyran-4-ylamino)benzamide]
- inhibition at 0.2 µM [1, 3]: 87%
- % Inhibition BaF3 NPM-ALK L1196M cells [2]: 62%

SMILES: CN1CCN(c2ccc(C(=O)Nc3n[nH]c4cc(-c5ccc6c(c5)C(=O)NC6)c(Cc5cc(F)cc(F)c5)cc34)c(NC3CCOCC3)c2)CC1 [Example 28, N-[5-[(3,5-difluorophenyl)methyl]-6-(3-oxoisoindolin-5-yl)-1H-indazol-3-yl]-4-(4-methylpiperazin-1-yl)-2-(tetrahydropyran-4-ylamino)benzamide]
- inhibition at 0.2 µM [1, 3]: 55%
- % Inhibition BaF3 NPM-ALK L1196M cells [2]: 60%

SMILES: CN1CCN(c2ccc(C(=O)Nc3n[nH]c4cc(-c5cnc6[nH]ccc6c5)c(Cc5cc(F)cc(F)c5)cc34)c(NC3CCOCC3)c2)CC1 [Example 29, N-[5-[(3,5-difluorophenyl)methyl]-6-(1H-pyrrolo[2,3-b]pyridin-5-yl)-1H-indazol-3-yl]-4-(4-methylpiperazin-1-yl)-2-(tetrahydropyran-4-ylamino)benzamide]
- inhibition at 0.2 µM [1, 3]: 100%
- GI50 [2]: 50 to 100 nM
- % Inhibition BaF3 NPM-ALK L1196M cells [2]: 98%

SMILES: CN1CCN(c2ccc(C(=O)Nc3n[nH]c4cc(-c5ccc(O)cc5)c(Cc5cc(F)cc(F)c5)cc34)cc2)CC1 [Example 33, N-[5-[(3,5-difluorophenyl)methyl]-6-(4-hydroxyphenyl)-1H-indazol-3-yl]-4-(4-methylpiperazin-1-yl)benzamide]
- inhibition at 0.2 µM [1, 4]: 100%
- GI50 [2]: 1 to 50 nM
- % Inhibition BaF3 NPM-ALK L1196M cells [2]: 99%

SMILES: Cc1cc(O)ccc1-c1cc2[nH]nc(NC(=O)c3ccc(N4CCN(C)CC4)cc3)c2cc1Cc1cc(F)cc(F)c1 [Example 34, N-[5-[(3,5-difluorophenyl)methyl]-6-(4-hydroxy-2-methyl-phenyl)-1H-indazol-3-yl]-4-(4-methylpiperazin-1-yl)benzamide]
- inhibition at 0.2 µM [1, 3]: 100%
- GI50 [2]: 1 to 50 nM
- % Inhibition BaF3 NPM-ALK L1196M cells [2]: 100%

SMILES: CN1CCN(c2ccc(C(=O)Nc3n[nH]c4cc(-c5ccc6[nH]ncc6c5)c(Cc5cc(F)cc(F)c5)cc34)cc2)CC1 [Example 35, N-[5-[(3,5-difluorophenyl)methyl]-6-(1H-indazol-5-yl)-1H-indazol-3-yl]-4-(4-methylpiperazin-1-yl)benzamide]
- inhibition at 0.2 µM [1, 3]: 100%
- GI50 [2]: 50 to 100 nM
- % Inhibition BaF3 NPM-ALK L1196M cells [2]: 96%

SMILES: CN1CCN(c2ccc(C(=O)Nc3n[nH]c4cc(-c5ccc(O)cc5)c(Cc5cccc(F)c5)cc34)c(NC3CCOCC3)c2)CC1 [Example 38, N-[5-[(3-fluorophenyl)methyl]-6-(4-hydroxyphenyl)-1H-indazol-3-yl]-4-(4-methylpiperazin-1-yl)-2-(tetrahydropyran-4-ylamino)benzamide]
- inhibition at 0.2 µM [1, 4]: 100%
- GI50 [2]: 1 to 50 nM
- % Inhibition BaF3 NPM-ALK L1196M cells [2]: 100%

SMILES: COCCNc1cc(N2CCN(C)CC2)ccc1C(=O)Nc1n[nH]c2cc(-c3ccc(O)c(F)c3)c(Cc3cccc(F)c3)cc12 [Example 42, N-[6-(3-fluoro-4-hydroxy-phenyl)-5-[(3-fluorophenyl)methyl]-1H-indazol-3-yl]-2-(2-methoxyethylamino)-4-(4-methylpiperazin-1-yl)benzamide]
- inhibition at 0.2 µM [1, 4]: 100%
- GI50 [2]: 50 to 100 nM
- % Inhibition BaF3 NPM-ALK L1196M cells [2]: 93%
